The nature of series [1]: Determination of stability in plasma in vitro, human plasma (LC-MS/MS). The format is in vitro ADME. As to conditions: same experimental conditions (human and mouse plasma). As to the method:
Pharmacological Example 3: Determination of Stability in Plasma in Vitro
The stock solution was diluted with acetonitrile to obtain a working solution at a concentration of 100 µ M. The solution should be freshly prepared prior to use and maintained at room temperature during application.
990 µ L of human and mouse plasma (N = 2) were separately pipetted and pre-incubated at 37 °C for 5 min. Then, 10 µ L of the test compound working solution was added and vortexed thoroughly (the final concentration of the test compound was 1 µ M). Immediately, 50 µ L of the plasma sample was added to 150 µ L of ice-cold precipitation agent containing the internal standard and vortexed thoroughly as the 0-time sample. The remaining plasma sample was continuously incubated at 37 °C, and 50 µ L of the plasma sample was aspirated and added to 150 µ L of ice-cold precipitation agent containing the internal standard at preset sampling time points, followed by thorough vortexing. The collected samples were stored in a freezer at -60 to -90 °C until analysis.
The concentration of the test compound was determined by LC-MS/MS, and its degradation was monitored. (semi-quantitative determination was conducted by comparing the peak area of the analyte to that of the internal standard).

The test system of series [2] is inflammatory bowel disease model rats. The experiment in a line: Inflammatory bowel disease experiment (TNBS model): macroscopic injury score of the colon. The format is in vivo. As to conditions: compared with the model group. As to the method: Pharmacological Example 7: Pharmacodynamic Experiment on Inflammatory Bowel Disease in Rats
Test samples: The jet-milled compounds 23 and 34 were accurately weighed and prepared as 2 mg/mL clear solutions using anhydrous ethanol, respectively. The solutions were then diluted to 0.2 mg/mL with double-distilled water as the test samples, and stored at room temperature protected from light until use.
Animals in Groups 2 to 5 were subjected to trinitrobenzene sulfonic acid (TNBS) modeling as follows: A 5% TNBS aqueous solution was adjusted to 20 mg/mL TNBS (50% ethanol solution) with alcohol and water. After fasting for 24 h, the rats were anesthetized using an inhalation anesthesia machine. A silicone hose was inserted approximately 8 cm into the anus, and then TNBS was injected at a dose of 50 mg/kg. After injection, the rats were placed vertically for 1 min to prevent the backflow of TNBS solution. Then, the rats were placed into their cages for observation until the animals recovered.
Drug administration started one day before modeling, with one dose administered 1 hour before modeling and then once a day for 5 consecutive days. […] Table 14. Animal grouping and drug administration dosages
The experiment ended on day 5 after TNBS modeling. After isoflurane anesthesia, blood was collected from the hearts, and the rats were euthanized. The abdominal cavity was rapidly opened, and the macroscopic injury scoring of the colon in rats was performed based on the adhesion, obstruction, thickening of the colonic wall, colonic congestion, and necrosis in the colon area. After clearing the colonic contents, the colonic samples were longitudinally incised. The proximal 2/3 of the colon was excised, prepared into Swiss rolls, and stored in 4% neutral buffered formalin for histopathological analysis. Tissues were trimmed, dehydrated, paraffin-embedded, and sectioned (approximately 5 µm thickness), stained with hematoxylin-eosin (HE), and observed for pathological changes. Pathologists performed blind scoring of colonic lesions.
Quantitative indices were first subjected to Bartlett's test for homogeneity of variance. When the variance was homogeneous (P > 0.05), one-way analysis of variance (ANOVA) was used for a statistical test; if there was statistical significance (P ≤ 0.05), Dunnett's t-test (Dunnett method) was used to compare intergroup differences; if there was no statistical significance (P > 0.05), the statistical analysis was concluded. When the variance was heterogeneous (P ≤ 0.05), Kruskal-Wallis H rank-sum test (K-W method) was used for statistical analysis: if there was statistical significance (P ≤ 0.05), Mann-Whitney U test (M-W method) was further performed to compare intergroup differences; if there was no statistical significance (P > 0.05), the statistical analysis was concluded.

Series [3] relates to inflammatory cytokines (TNF-α). The experiment in a line: Anti-uveitis pharmacodynamic experiment (LPS model): inflammatory cytokines in aqueous humor (ELISA). The following applies: values not given. It counts as in vivo, male SD rats. The method, then: Pharmacological Example 5. Pharmacodynamic Experiment on Anti-Uveitis
Test samples: Compounds 23 and 26 were prepared as 5 mg/5 mL ophthalmic suspensions with reference to the formulation of Fluorometholone Eye Drops, and stored at room temperature protected from light until use.
Positive control drug: Fluorometholone Eye Drops (specification: 5 mL/5 mg; Santen Pharmaceutical (CHINA) Co., Ltd.; Lot No. : J20180068) was used as the positive control drug and stored at room temperature protected from light until use.
Fifty male SD rats underwent a one-week adaptive feeding period. The animals were randomly divided into 5 groups: Group 1 served as the blank control group, and Groups 2 to 5 were the model group, fluorometholone group, compound 23 group, and compound 26 group, respectively. Groups 2 to 5 were used to establish rat uveitis models by single subcutaneous injection of 1 mg/kg LPS (Salmonella; Sigma; Lot No. 0000164114) into the plantar tissue of the hindpaw. Salmonella endotoxin was dissolved in normal saline to prepare an injection solution at a concentration of 2 mg/mL, which was injected subcutaneously at 1 mg/kg into the plantar tissue of one paw of the rats. Group 1 was injected with an equal volume of normal saline.
After modeling, 40 µL of normal saline was administered to the eyes (bilateral) of the rats in the blank control group and model group, and 40 µL of the corresponding drugs were administered to the eyes (bilateral) of the […] in the compound 23 group, compound 26 group, and positive drug fluorometholone group, 3 times a day for 2 days. Table 8. Animal grouping and drug administration dosages
Thirty hours after modeling, aqueous humor was collected from both eyes of rats, and partial eyeball tissues of rats were collected. The level of the inflammatory cytokines (TNF-α) was detected using a rat ELISA assay kit.
Statistical analysis was performed using SPSS software. Measurement data were expressed as mean ± standard deviation. One-way ANOVA was used for intergroup comparisons. For data with homogeneous variance, LSD test was used; for data with heterogeneous variance, Dunnett-t test was used. A value of P < 0.05 was considered statistically significant.
In general terms: An ELISA detects its analyte on a solid surface through an enzyme-linked reagent.

Series [4] concerns dry eye syndrome model New Zealand rabbits. The experiment in a line: Dry eye syndrome experiment (benzalkonium chloride model): corneal fluorescein sodium staining. The following applies: compared with the model group. The format is in vivo, male New Zealand White rabbits.
For series [5] the test system is unchanged. The experiment in a line: Dry eye syndrome experiment (benzalkonium chloride model): tear secretion test with phenol red cotton threads. It counts as in vivo, male New Zealand White rabbits. The following applies: compared with the model group.
Protocol: Positive control drug: Fluorometholone Eye Drops (specification: 5 mL/5 mg; Santen Pharmaceutical (CHINA) Co., Ltd.; Lot No.: 1FM6625) was used as the positive control drug and stored at room temperature protected from light until use.
Thirty male New Zealand White rabbits (conventional grade) were prepared. Six rabbits were randomly selected as the blank control group, and the remaining animals were administered 0.1% benzalkonium chloride to the left eye twice daily (morning and evening) , 10 µL/animal each time. On day 6 of modeling, tear secretion was measured using phenol red cotton threads to determine whether the model was successfully established. […] During the administration, all animals except the blank control group were administered 10 µL of 0.1% benzalkonium chloride to the left eye once daily to maintain dry eye symptoms..
• Test time: D3, D7, D15; • Test animals: All animals were tested before grouping; all enrolled surviving animals were tested after administration; • Test method: Tear secretion was measured using phenol red cotton threads. The tear secretion test paper was folded and placed at the middle and outer 1/3 of the rabbit palpebral conjunctival sac for 1 min. The test paper was then removed, observed, and recorded for its wetting length. The test was repeated 3 times, and the values were averaged.
The normality and homogeneity of variance were tested by Levene's test. If there was no statistical significance (P > 0.05), one-way analysis of variance (ANOVA) was used for statistical analysis. If ANOVA was statistically significant (P ≤ 0.05), LSD test (parametric method) was used for comparative analysis. If the variance was heterogeneous (P ≤ 0.05), Kruskal-Wallis test was used. If the Kruskal-Wallis test was statistically significant (P ≤ 0.05), Dunnett's test (nonparametric method) was used for comparative analysis.
A further series has as its system asthma model mice. The experiment in a line: Anti-asthma pharmacodynamic experiment: airway hyperresponsiveness (Penh) after methacholine challenge. The following applies: compared with the model group. The format is in vivo, female BALB/c mice.
The test system of the next series is uveitis model rats. The experiment in a line: Anti-uveitis pharmacodynamic experiment (LPS model): ocular pathological score. It counts as in vivo, male SD rats. As to conditions: for ocular abnormalities / ocular pathological score: compared with the model group.
Series [6] relates to inflammatory cytokines IL-6 and IL-12. The experiment in a line: Anti-asthma pharmacodynamic experiment: inflammatory cytokines in bronchoalveolar lavage fluid (ELISA). The format is in vivo, female BALB/c mice. As to conditions: compared with the model group.

Protocol for uveitis model rats: Fifty male SD rats underwent a one-week adaptive feeding period. […] Groups 2 to 5 were used to establish rat uveitis models by single subcutaneous injection of 1 mg/kg LPS (Salmonella; Sigma; Lot No. 0000164114) into the plantar tissue of the hindpaw. Salmonella endotoxin was dissolved in normal saline to prepare an injection solution at a concentration of 2 mg/mL, which was injected subcutaneously at 1 mg/kg into the plantar tissue of one paw of the rats. Group 1 was injected with an equal volume of normal saline.
At the end of the experiment, photos of the rats' eyes were taken using a slit-lamp microscope, and the differences in ocular lesions of rats among groups were compared and analyzed.

As for `C[C@]12C=CC(=O)C=C1[C@@H](F)C[C@H]1[C@@H]3C[C@H]4OC(c5ccc(CSC6CCOC6=O)cc5)O[C@@]4(C(=O)OCC#N)[C@@]3(C)C[C@H](O)[C@@]12F` (stereo partly drawn) [Compound 37, Cyanomethyl (2S,6aS,6bR,7S,8aS,8bS,11aR,12aS,12bS)-2,6b-difluoro-7-hydroxy-6a,8a-dimethyl-4-oxo-10-(4-( ((2-oxotetrahydrofuran-3-yl)thio)methyl)phenyl)-1,2,4,6a,6b,7,8,8a,11a,12,12a,12b-dodecahydro-8bH-naphtho[2',1':4,5]indeno[1,2-d][1,3]dioxole-8b-carboxylate], the plasma instability entry in series [1] was “exhibited the characteristic of plasma instability”. Further, the “inflammatory response on the intestinal surface / intestinal symptoms” value in series [2] was “significantly alleviated the intestinal symptoms in inflammatory bowel disease model rats”. In series [3], the “inflammatory cytokines in aqueous humor” value was “suppressed inflammatory cytokines in aqueous humor”. Further, in series [4], the “inflammatory response on the ocular surface / ocular symptoms” value is on record as “significantly alleviated the ocular symptoms in dry eye syndrome model New Zealand rabbits”. For the same molecule, the tear secretion entry in series [5] was “significantly increased the tear secretion”. In addition, the “Effects on airway hyperresponsiveness (Penh values) in mice” value (shortened to “Effects on airway hyperresponsiveness”) with asthma model mice is recorded as “significantly decreased the Penh values in mice”. Also, in the series with uveitis model rats, the “ocular abnormalities / ocular pathological score” value was “significantly improved ocular abnormalities”. In addition, in series [6], the “Effects on inflammatory cytokines in bronchoalveolar lavage fluid of mice” value (shortened to “Effects on inflammatory cytokines”) is reported as “pharmacological effects similar to those of compound 23”.

For the molecule `C[C@]12C=CC(=O)C=C1CC[C@H]1[C@@H]3C[C@H]4OC(c5ccc(CSC6CCOC6=O)cn5)O[C@@]4(C(=O)CO)[C@@]3(C)C[C@H](O)[C@@]12Cl` (stereo partly drawn) [Compound 51, (6aS,6bR,7S,8aS,8bS,11aR,12aS,12bS)-6b-Chloro-7-hydroxy-8b-(2-hydroxyacetyl)-6a,8a-dimethyl-10-(5-(((2-oxotetrahydrofuran-3-yl)thio)methyl)pyridin-2-yl)-1,2,6a,6b,7,8,8a,8b,11a,12,12a,12 b-dodecahydro-4H-naphtho[2',1':4,5]indeno[1,2-d][1,3]dioxol-4-one], the plasma instability result in series [1] is “exhibited the characteristic of plasma instability”. Besides, the “inflammatory response on the intestinal surface / intestinal symptoms” value in series [2] is recorded as “significantly alleviated the intestinal symptoms in inflammatory bowel disease model rats”. In series [3], the “inflammatory cytokines in aqueous humor” value is on record as “suppressed inflammatory cytokines in aqueous humor”. In series [4], the “inflammatory response on the ocular surface / ocular symptoms” value was “significantly alleviated the ocular symptoms in dry eye syndrome model New Zealand rabbits”. The tear secretion result in series [5] is “significantly increased the tear secretion”. Moreover, the “Effects on airway hyperresponsiveness” value in the series on asthma model mice is given as “significantly decreased the Penh values in mice”. Besides, in the series on uveitis model rats, the “ocular abnormalities / ocular pathological score” value is “significantly improved ocular abnormalities”. Besides, in series [6], the “Effects on inflammatory cytokines” value is recorded as “pharmacological effects similar to those of compound 23”.

For `C[C@]12C=CC(=O)C=C1CC[C@H]1[C@@H]3C[C@H]4OC(c5ccc(CSC6COC(=O)C6)cc5)O[C@@]4(C(=O)CO)[C@@]3(C)C[C@H](O)[C@@]12Cl` (stereo partly drawn) [Compound 26, (6aS,6bR,7S,8aS,8bS,11aR,12aS,12bS)-6b-Chloro-7-hydroxy-8b-(2-hydroxyacetyl)-6a,8a-dimethyl-10-(4-(((5-oxotetrahydrofuran-3-yl)thio)methyl)phenyl)-1,2,6a,6b,7,8,8a,8b,11a,12,12a,12b-do decahydro-4H-naphtho[2',1':4,5]indeno[1,2-d][1,3]dioxol-4-one], in series [1], the plasma instability entry was “exhibited the characteristic of plasma instability”. The “inflammatory response on the intestinal surface / intestinal symptoms” value in series [2] was “significantly alleviated the intestinal symptoms in inflammatory bowel disease model rats”. For the same molecule, in series [3], the “inflammatory cytokines in aqueous humor” value was “suppressed inflammatory cytokines in aqueous humor”. In series [4], the “inflammatory response on the ocular surface / ocular symptoms” value is reported as “significantly alleviated the ocular symptoms in dry eye syndrome model New Zealand rabbits”. The tear secretion result in series [5] is “significantly increased the tear secretion”. In the series with asthma model mice, the “Effects on airway hyperresponsiveness” value is listed as “significantly decreased the Penh values in mice”. Moreover, the Ocular pathological score in the series on uveitis model rats (1 mg/mL, 40 µL/eye, 3 times a day for 2 days) is listed as 7.6 ± 0.5. In the series on uveitis model rats, the “ocular abnormalities / ocular pathological score” value is “significantly improved the ocular abnormalities and reduced the ocular pathological score”. In addition, the “Effects on inflammatory cytokines” value in series [6] was “pharmacological effects similar to those of compound 23”.

Values taken from patent publication EP4635969A1, “NOVEL GLUCOCORTICOID, METHOD FOR PREPARING SAME, AND USE THEREOF” (Tianjin Pharmaceutical Biotechnology Co., Ltd., priority 2022, dated 2024).
